“Also recorded” adds a separate entry of the source.
Experiments:
hKCNQ4 = test: Gq coupling test: KCNQ4 current in HEK293 cells coexpressing Or22a, Or83b and hKCNQ4; assay type: cell-based, human; details: increasing Etb concentrations; +40 mV
Method: (§1) HEK293 cells were cultured as described by Wicher and colleagues (Wicher et al., J. Biol. Chem. 281, 3227-36 (2006)). In brief, HEK293 cells were cultured at a density of ∼2*10^4 per 35-mm dish and transfected with 1 µg pcDNA3-DOR22a-GFP and 1 µg pcDNA3-DOR83b-GFP (Neuhaus, et al., Nat. Neurosci. 8, 15-17 (2005); DNAs were a generous gift of Dr. E. Neuhaus and Dr. H. Hatt) using Roti-Fect transfection kit (Roth, Karlsruhe, Germany). In some experiments we transfected cells with pcDNA3-DOR22a-GFP or pcDNA3-DOR83b-GFP alone. We also examined the properties of DOR47a, which was cloned, using standard molecular biology methods into a pcDNA3.1(-) expression vector. To test for putative G-protein coupling, cells were transfected with the respective OR-DNA together with 1.5 µg hHCN2/pcDNA3 (provided by M. Biel, Munich, Germany), with 1 µg hKCNQ4/pcDNA3.1 or with 1 µg hCNGA2/pCMV6-XL4 (Origene, Rockville, MD, USA).
(§2) Ion currents in HEK293 cells were measured with the patch-clamp technology as described (Wicher et al, J. Biol. Chem. 281, 3227-36 (2006)). In brief, ion currents in HEK293 cells were measured at room temperature using whole-cell patch-clamp with appropriate compensation of series resistance and of capacitive currents. Additional experiments were performed in the outside-out configuration. […]

hHCN2 = test: Gs coupling test: hHCN2 current in HEK293 cells coexpressing ORs and hHCN2; assay type: cell-based, human; details: 2 min 100 nM Etb; Or22a, Or83b and hHCN2 coexpressed
Method: as §1, §2

hCNGA2 [1] = test: Gs coupling test: hCNGA2 whole-cell current in HEK293 cells; assay type: cell-based, human
Method: as §1
Ion currents in HEK293 cells were measured with the patch-clamp technology as described (Wicher et al, J. Biol. Chem. 281, 3227-36 (2006)). In brief, ion currents in HEK293 cells were measured at room temperature using whole-cell patch-clamp with appropriate compensation of series resistance and of capacitive currents. Additional experiments were performed in the outside-out configuration. Current measurements and data acquisition were performed using an EPC9 patch-clamp amplifier controlled by PatchMaster software (both HEKA Elektronik, Lambrecht, Germany). Patch-clamp pipettes were fabricated from borosilicate capillaries. Pipettes for whole-cell recordings had resistances of 2-4 MΩ for excised-patch recordings the pipette resistance was up to 15 MΩ.

Or22a and Or83b = target: T1, Or22a and Or83b (Drosophila melanogaster, UniProt P81909+Q9VNB5); test: Radioreceptor assay of cAMP content of HEK293 cells expressing Or22a and Or83b; assay type: cell-based; details: 100 nM Etb for 15 min; n = 3 experiments; control 1.28 ± 0.06
T1 construct: expressed in transfected cells; host or cells: HEK293
T1 sequence (P81909 1-397): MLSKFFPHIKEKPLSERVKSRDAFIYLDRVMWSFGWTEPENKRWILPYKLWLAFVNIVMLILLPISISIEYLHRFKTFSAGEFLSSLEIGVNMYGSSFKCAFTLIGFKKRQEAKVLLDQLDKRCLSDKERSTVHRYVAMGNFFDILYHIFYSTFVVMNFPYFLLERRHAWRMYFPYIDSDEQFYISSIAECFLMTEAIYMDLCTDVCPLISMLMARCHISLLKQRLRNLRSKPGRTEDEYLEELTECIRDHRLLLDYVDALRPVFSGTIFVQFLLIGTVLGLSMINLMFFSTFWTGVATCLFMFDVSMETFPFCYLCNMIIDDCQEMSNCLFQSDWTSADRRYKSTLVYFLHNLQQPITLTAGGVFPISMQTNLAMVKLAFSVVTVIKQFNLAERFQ
T1 sequence (Q9VNB5 1-486): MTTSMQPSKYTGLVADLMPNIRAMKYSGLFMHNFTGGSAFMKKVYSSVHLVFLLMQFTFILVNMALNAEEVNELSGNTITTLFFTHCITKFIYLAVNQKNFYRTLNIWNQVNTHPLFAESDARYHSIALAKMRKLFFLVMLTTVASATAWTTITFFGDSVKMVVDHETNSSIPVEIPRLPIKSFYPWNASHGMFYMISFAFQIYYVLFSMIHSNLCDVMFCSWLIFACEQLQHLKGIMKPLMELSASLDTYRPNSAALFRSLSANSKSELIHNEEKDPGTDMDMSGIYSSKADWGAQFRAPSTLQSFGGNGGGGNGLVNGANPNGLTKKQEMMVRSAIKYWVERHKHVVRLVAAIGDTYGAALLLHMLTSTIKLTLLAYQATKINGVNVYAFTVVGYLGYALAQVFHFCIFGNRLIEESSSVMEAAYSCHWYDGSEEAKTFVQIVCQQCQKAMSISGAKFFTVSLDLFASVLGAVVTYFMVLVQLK
Method: Monolayers of HEK293 cells were incubated for 30 min in HEPES Ringer's buffer containing 1 mM isobutylmethylxanthine and stimulated with 100 nM Etb for 15 min. The reaction was stopped with 96% ethanol, and after evaporation, 50 mM Tris/4 mM EDTA (pH 7.5) was added.

hCNGA2 [2] = test: Calcium imaging (fura-2) in HEK293 cells expressing hCNGA2 and Or22a; assay type: cell-based, human; details: most prominent near the plasma membrane (Fig. 5d)
Method: Free intracellular Ca^2+ concentration ([Ca^2+]i) was determined by fura-2 fluorescence as described (Messutat et al., Cell Calcium 30, 199-211. (2001)). In brief, cells were loaded with fura-2 by incubation in bath solution containing 2 µM fura-2/acetomethylester for 20 min. Free intracellular Ca^2+ concentration ([Ca^2+]i) was determined with the fluorescence ratio method. Excitation of fura-2 at 340 and 380 nm was performed with a monochromator (Polychrome II, T.I.L.L. Photonics, Gräfelfing, Germany) coupled via an epifluorescence condenser into an Axioskop FS microscope (Carl Zeiss, Jena, Germany) with a water immersion objective (LUMPFL 40xW/IR/0.8; Olympus, Hamburg, Germany). […] [Ca^2+]i was calculated according to the equation [Ca^(2 +)]i = Keff (R-Rmin)/(Rmax-R). […] Keff, Rmin, and Rmax were determined using HEK293 cells permeabilized with 2 µM ionomycin and three solutions with different concentrations of free Ca^2+ (Ca^2+ free; 5 mM Ca^2+; 500 nM Ca^2+; the composition of the 500 nM solution was calculated with WEBMAXC v.2.20) (Patton et al., Cell Calcium 35, 427-31 (2004)). […]
Fluorescence images were acquired using a cooled CCD camera controlled by TILLVision 4.0 software (T.I.L.L. Photonics). […] Image pairs were obtained by excitation for 100 ms at 340 nm and 380 nm; background fluorescence was subtracted.

SMILES: CCCC(=O)OCC [Etb, ethyl butyrate]
- effect on KCNQ4 current (hKCNQ4): remains unaffected; also recorded: had no effect
- effect on hHCN2 current time course (hHCN2): accelerated the current time course
- effect on CNGA2 current (hCNGA2 [1]; cells expressing Or22a plus Or83b or Or22a alone): concentration-dependent rise in CNGA2 current
- Hill coefficient of Etb-induced currents (hCNGA2 [1]; cells expressing hCNGA2 and Or22a, -80 mV, n = 5): 0.54
- EC50 (hCNGA2 [1]; cells expressing hCNGA2 and Or22a, -80 mV, normalized to controls, n = 5, read-out: EC50 of Etb-induced currents): 3 nM
- response of hCNGA2 current (hCNGA2 [1]; cells solely expressing CNGA2, Etb 100 nM, forskolin 10 µM, -80 mV): did not respond
- cAMP level (Or22a and Or83b): 1.65 ± 0.10 pmol/mg protein
- [Ca^2+]i (hCNGA2 [2]): produced an increase in [Ca^2+]i

— EP2108954A1, “A test system for detecting intracellular cyclic nucleotide level and methods and uses thereof” (Max-Planck-Gesellschaft zur Förderung der Wissenschaften …, priority 2008, dated 2009)
